{"source": "patent US20250278807A1", "about": "“MODERN MONETARY THEORY AND TRANSLATIONAL SCIENTIFIC RESEARCH” (priority 2025, published 2025)", "origin": "cited, not measured here", "key": {"[1]": {"system": "wide variety of cancer cells", "conditions": "in vitro"}, "[2]": {"system": "wide variety of cancer cells", "conditions": "in vivo"}, "[3]": {"conditions": "in vivo"}, "[4]": {"system": "other malignant cell cultures", "conditions": "in vitro"}, "[5]": {"conditions": "in vivo", "remark": "listed apart in the source"}, "[6]": {"target": "T1, beta amyloid peptide (1-40) aggregates (Homo sapiens, UniProt P05067)", "T1 construct": "beta amyloid peptide (1-40)", "T1 sequence (P05067 672-711 limits assumed)": "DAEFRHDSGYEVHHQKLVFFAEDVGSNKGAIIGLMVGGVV", "conditions": "in vitro, aggregates formed with calcium ions; loss of Thioflavin T fluorescence"}, "thoracic atheroma": {"system": "thoracic atheroma", "conditions": "administered intraperitoneally, cholesterol-fed rabbits"}, "[7]": {"system": "chronic lumbar radicular pain", "conditions": "phase II trials, versus placebo"}}, "note": "Where two headings read alike, the source gives them in different places.", "data": [{"compound": "O=CC[C@@H](O)[C@H](O)[C@H](O)CO", "note": "[2DG, 2-Deoxy-D-Glucose]", "values": [{"measurement": "inhibition of growth of cancer cells", "setting": "[1]", "value": "inhibit growth"}, {"measurement": "inhibition of growth of cancer cells", "setting": "[2]", "value": "inhibit growth"}]}, {"compound": "O=[14CH][C@H](O)[C@H](O)[C@H](O)CO", "note": "[D-ribose-1-C^14]", "values": [{"measurement": "excretion after infusion", "setting": "[3]", "value": "excreted unchanged in the urine"}]}, {"compound": "C[C@@H](O)C(=O)O[C@H](C)C(=O)O", "note": "[DLAD, D-Lactic Acid Dimer]", "values": [{"measurement": "inhibition of growth of melanoma tumors", "setting": "melanoma tumors; in vivo", "value": "inhibit growth"}, {"measurement": "tumoricidal activity", "setting": "melanoma tumors; intralesional application", "value": "dose response tumoricidal activity"}, {"measurement": "inhibition of growth of other malignant cell cultures", "setting": "[4]", "value": "inhibit growth"}, {"measurement": "inhibition of melanoma cell proliferation", "setting": "melanoma cell; compared to L-lactic acid dimer (P<0.0001)", "value": "conclusively shown"}, {"measurement": "efficacy at pH 7", "setting": "melanoma cell; pH 7", "value": "lost efficacy"}, {"measurement": "inhibition of growth of cancer cells", "setting": "[1]", "value": "inhibit growth"}, {"measurement": "inhibition of growth of cancer cells", "setting": "[2]", "value": "inhibit growth"}]}, {"compound": "NCCCC[C@H](N)C(=O)O", "note": "[L-lysine]", "values": [{"measurement": "effect on absorption of glucose", "setting": "blood glucose; concomitant administration of glucose with L-lysine", "value": "decrease the absorption of glucose"}, {"measurement": "oral bioavailability", "setting": "blood glucose; in vivo, po", "value": "well established"}, {"measurement": "effect on blood glucose", "setting": "blood glucose; oral administration", "value": "lower blood glucose"}]}, {"compound": "CCN(CC)CCOC(=O)c1ccc(N)cc1", "note": "[Procaine]", "values": [{"measurement": "oral bioavailability", "setting": "[5]", "value": "orally bioavailable"}]}, {"compound": "O=C(O)CC(O)(CC(=O)O)C(=O)O", "note": "[citrate]", "values": [{"measurement": "dissolution of beta amyloid aggregates", "setting": "[6]", "value": "can be dissolved"}]}, {"compound": "O=C([O-])CC(O)(CC(=O)[O-])C(=O)[O-].[Na+].[Na+].[Na+]", "note": "[sodium citrate]", "values": [{"measurement": "effect on thoracic atheroma", "setting": "thoracic atheroma", "value": "decreased thoracic atheroma"}]}, {"compound": "COc1c([C@H]2[C@H](C(=O)Nc3ccnc(C(N)=O)c3)O[C@@](C)(C(F)(F)F)[C@H]2C)ccc(F)c1F", "note": "[suzetrigine]", "values": [{"measurement": "efficacy in chronic lumbar radicular pain", "setting": "[7]", "value": "no better efficacy than placebo"}]}, {"compound": "Choline citrate", "values": [{"measurement": "effect on thoracic atheroma", "setting": "thoracic atheroma", "value": "decreased thoracic atheroma"}]}]}
